pKd: −log10 of the molar value.
Legend:
Stp1 [1] = molecular target: Stp1 (Staphylococcus aureus, UniProt A0A0H2XF73, Y199A); assay: biochemical
Stp1 [2] = molecular target: Stp1 (Staphylococcus aureus, UniProt A0A0H2XF73, I164A); assay: biochemical
Stp1 [3] = molecular target: T1, Stp1 (Staphylococcus aureus, UniProt A0A0H2XF73); assay: pNPP phosphatase assay, absorbance […] nm; type: biochemical; conditions: read-out: % inhibition at 32 μg/mL
T1 sequence (A0A0H2XF73 1-247): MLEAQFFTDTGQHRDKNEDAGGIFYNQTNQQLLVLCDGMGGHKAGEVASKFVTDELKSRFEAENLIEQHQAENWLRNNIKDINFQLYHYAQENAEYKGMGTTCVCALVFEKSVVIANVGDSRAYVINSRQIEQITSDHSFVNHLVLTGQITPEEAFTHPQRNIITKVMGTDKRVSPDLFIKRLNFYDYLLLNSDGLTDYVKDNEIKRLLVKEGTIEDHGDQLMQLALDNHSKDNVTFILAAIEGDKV

Stp1 [4] = molecular target: Stp1 (Staphylococcus aureus, UniProt A0A0H2XF73, F179A); assay: biochemical
Stp1 [5] = molecular target: T1, Stp1; assay: fluorescence quenching; type: binding
Stp1 [6] = molecular target: Stp1 (Staphylococcus aureus, UniProt A0A0H2XF73, P152A); assay: biochemical

O=C(O[C@@H]1O[C@@H]2COC(=O)c3cc(O)c(O)c(O)c3-c3c(cc(O)c(O)c3O)C(=O)O[C@H]([C@H]1O)[C@@H]2O)c1cc(O)c(O)c(O)c1 [corilagin]
pKd (Stp1 [1]): 5.54
pKd (Stp1 [2]): 5.05
inhibition at 32 µg/mL (Stp1 [3]): > 90%
pKd (Stp1 [4]): 5.59
pKd (Stp1 [5]): 5.71
pKd (Stp1 [6]): 5.14

From article PMC7774088 (ACS Omega, 2020)
